Laboratory results published in the supplement of paper PMC11208160.

Assay: recombinant barcode read abundance after kanamycin selection (control-corrected) (log10(CPM+1)); higher = more efficient recombination; sequences stand for … in AGTGCAGAGAAAATCGGCCAGTTTTCTCTGCCTGCAGTCCGCATGCCGT…AGATTTATGCAGCGGACTGCCTTTCTCCCAAAGTGATAAACCGGACAGTATCATGGACCGGTTTTCCCGGTAATCCGTATTTGCAAGGTTGGTTTCACT; site = the 11-nt target
Summary of the method: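 The screen was pooled in E. coli and paired targets with IS621 bridge RNA target-binding loops. Recombination efficiency is taken from barcode counts per million at recombinant junctions, averaged and adjusted against the control. Values, in the form log10(CPM+1), come from duplicate plating on chloramphenicol/ampicillin LB agar or on chloramphenicol/ampicillin/kanamycin with 0.1 mM IPTG.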
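Note: IS621 recombinase and bridge RNA in Escherichia coli cells.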

Sequence | recombinant barcode read abundance (log10)
TATTCTACTTGGGTTCTAACCTGTTGCGG (site TATTCTACTCC) | 0.223
TATTCTACTTGGGTTCTAACCTGTTGCGG (site TATTCTACTGC) | 0.101
TATTCTACTTGGGTTCTAACCTGTTGCGG (site TATTCTACTTC) | 0.169
TATTGGCCTTGGGTTCTAACCTGTTGCGT (site ACGACTACTCG) | 0.0203
TATTGGCCTTGGGTTCTAACCTGTTGCGT (site TATTGGCCTAC) | 0.202
TATTTCTCTTGGGTTCTAACCTGTTGCCT (site AATTTCTCTAG) | 0.0527
TATTTCTCTTGGGTTCTAACCTGTTGCCT (site CATTTCTCTAG) | 0.0799
TATTTCTCTTGGGTTCTAACCTGTTGCCT (site GATTTCTCTAG) | 0.0942
TATTTCTCTTGGGTTCTAACCTGTTGCCT (site TATTTCTCTAG) | 0.157
TATTTGCCTTGGGTTCTAACCTGTTGCTG (site GCACCTGCTAG) | 0.183
TATTTGCCTTGGGTTCTAACCTGTTGCTG (site TATTTGCCTCA) | 0.0916
TCAAAGCCTTGGGTTCTAACCTGTTGCTG (site TCAAAGCCTCA) | 0.252
TCAAAGCCTTGGGTTCTAACCTGTTGCTG (site TCACAGCCTCA) | 0.204
TCAAAGCCTTGGGTTCTAACCTGTTGCTG (site TCAGAGCCTCA) | 0.372
TCAAAGCCTTGGGTTCTAACCTGTTGCTG (site TCATAGCCTCA) | 0.217
TCAAGACCTTGGGTTCTAACCTGTTGCCT (site TCAAGACCTAG) | 0.617
TCAAGACCTTGGGTTCTAACCTGTTGCCT (site TCAAGACCTCG) | 0.0935
TCACAGCCTTGGGTTCTAACCTGTTGCTG (site TCAAAGCCTCA) | 0.106
TCACAGCCTTGGGTTCTAACCTGTTGCTG (site TCACAGCCTCA) | 0.476
TCACAGCCTTGGGTTCTAACCTGTTGCTG (site TCAGAGCCTCA) | 0.176
TCACAGCCTTGGGTTCTAACCTGTTGCTG (site TCATAGCCTCA) | 0.178
TCACAGTCTTGGGTTCTAACCTGTTGCCT (site TAACACTCTAG) | 0.0324

Sequence | recombinant barcode read abundance (log10)
TCACAGTCTTGGGTTCTAACCTGTTGCCT (site TCACAGTCTAG) | 1.59
TCACATGCTTGGGTTCTAACCTGTTGCCT (site TCACATGCTAG) | 1.28
TCACATGCTTGGGTTCTAACCTGTTGCCT (site TCACCTGCTAG) | 0.0279
TCACATGCTTGGGTTCTAACCTGTTGCCT (site TCACGTGCTAG) | 0.179
TCACATGCTTGGGTTCTAACCTGTTGCCT (site TCACTTGCTAG) | 0.119
TCACATTCTTGGGTTCTAACCTGTTGCCT (site TCAAATTCTAG) | 0.228
TCACATTCTTGGGTTCTAACCTGTTGCCT (site TCACATTCTAG) | 0.31
TCACATTCTTGGGTTCTAACCTGTTGCCT (site TCAGATTCTAG) | 0.183
TCACATTCTTGGGTTCTAACCTGTTGCCT (site TCATATTCTAG) | 0.155
TCAGAGCCTTGGGTTCTAACCTGTTGCTG (site TCAAAGCCTCA) | 0.025
TCAGAGCCTTGGGTTCTAACCTGTTGCTG (site TCACAGCCTCA) | 0.0728
TCAGAGCCTTGGGTTCTAACCTGTTGCTG (site TCAGAGCCTCA) | 1.28
TCAGAGCCTTGGGTTCTAACCTGTTGCTG (site TCATAGCCTCA) | 0.0059
TCAGGAGCTTGGGTTCTAACCTGTTGCAG (site TCAGGAGCTCC) | 0.0921
TCAGGAGCTTGGGTTCTAACCTGTTGCAG (site TCAGGAGCTCT) | 1.57
TCATTGACTTGGGTTCTAACCTGTTGCCT (site TCATTGACTAG) | 0.622
TCATTGACTTGGGTTCTAACCTGTTGCCT (site TTATTCACTAG) | 0.0739
TCCAAATCTTGGGTTCTAACCTGTTGCCT (site AGACTGACTCC) | 0.109
TCCAAATCTTGGGTTCTAACCTGTTGCCT (site TCCAAATCTAG) | 0.317
TCCAACCCTTGGGTTCTAACCTGTTGCAG (site TCCAAACCTCT) | 0.066
TCCAACCCTTGGGTTCTAACCTGTTGCAG (site TCCAACCCTCT) | 1.69
TCCAACCCTTGGGTTCTAACCTGTTGCAG (site TCCAAGCCTCT) | 0.0523

Sequence | recombinant barcode read abundance (log10)
TCCAACCCTTGGGTTCTAACCTGTTGCAG (site TCCAATCCTCT) | 0.0309
TCCAACCCTTGGGTTCTAACCTGTTGCTG (site GCCAAGCCTCA) | 0.0799
TCCAACCCTTGGGTTCTAACCTGTTGCTG (site TCCAACCCTCA) | 1.65
TCCAACCCTTGGGTTCTAACCTGTTGCTT (site CAGGGGACTGT) | 0.0296
TCCAACCCTTGGGTTCTAACCTGTTGCTT (site TCCAACCCTAA) | 0.391
TCCAACTCTTGGGTTCTAACCTGTTGCAC (site CATCCTACTAG) | 0.0443
TCCAACTCTTGGGTTCTAACCTGTTGCAC (site TCCAACTCTGT) | 0.903
TCCAAGGCTTGGGTTCTAACCTGTTGCTA (site CTGCGTACTCG) | 0.0788
TCCAAGGCTTGGGTTCTAACCTGTTGCTA (site TCCAAGGCTTA) | 0.275
TCCAATACTTGGGTTCTAACCTGTTGCCG (site TCCAACACTCG) | 0.0602
TCCAATACTTGGGTTCTAACCTGTTGCCG (site TCCAATACTCG) | 0.269
TCCAGCTCTTGGGTTCTAACCTGTTGCCT (site ACCAGATCTAG) | 0.0273
TCCAGCTCTTGGGTTCTAACCTGTTGCCT (site TCCAGCTCTAG) | 0.631
TCCAGGGCTTGGGTTCTAACCTGTTGCCT (site TCCAGGGCTAG) | 0.185
TCCAGGGCTTGGGTTCTAACCTGTTGCCT (site TCCTGGCCTAG) | 0.0786
TCCAGTACTTGGGTTCTAACCTGTTGCAT (site TCCAGTACTAT) | 0.351
TCCAGTACTTGGGTTCTAACCTGTTGCAT (site TCCCGTACTAT) | 0.0322
TCCAGTACTTGGGTTCTAACCTGTTGCAT (site TCCGGTACTAT) | 0.564
TCCAGTACTTGGGTTCTAACCTGTTGCAT (site TCCTGTACTAT) | 0.105
TCCCATACTTGGGTTCTAACCTGTTGCGA (site CTTGGGTCTAT) | 0.0603
TCCCATACTTGGGTTCTAACCTGTTGCGA (site TCCCATACTTC) | 1.57
TCCCATCCTTGGGTTCTAACCTGTTGCCT (site TCCCATACTAG) | 0.0689

Sequence | recombinant barcode read abundance (log10)
TCCCATCCTTGGGTTCTAACCTGTTGCCT (site TCCCATCCTAG) | 0.757
TCCCATCCTTGGGTTCTAACCTGTTGCCT (site TCCCATGCTAG) | 0.0237
TCCCATCCTTGGGTTCTAACCTGTTGCCT (site TCCCATTCTAG) | 0.592
TCCCATCCTTGGGTTCTAACCTGTTGCGT (site TCCCATCCTAC) | 2.38
TCCCATCCTTGGGTTCTAACCTGTTGCGT (site TCCTATCCTAC) | 0.0583
TCCCGTACTTGGGTTCTAACCTGTTGCAT (site TCCAGTACTAT) | 0.382
TCCCGTACTTGGGTTCTAACCTGTTGCAT (site TCCCGTACTAT) | 0.43
TCCCGTACTTGGGTTCTAACCTGTTGCAT (site TCCGGTACTAT) | 0.0638
TCCCGTACTTGGGTTCTAACCTGTTGCAT (site TCCTGTACTAT) | 0.159
TCCCTATCTTGGGTTCTAACCTGTTGCCT (site TACCTATCTAG) | 0.223
TCCCTATCTTGGGTTCTAACCTGTTGCCT (site TCCCTATCTAG) | 0.758
TCCCTATCTTGGGTTCTAACCTGTTGCCT (site TGCCTATCTAG) | 0.0386
TCCCTATCTTGGGTTCTAACCTGTTGCCT (site TTCCTATCTAG) | 0.0651
TCCGACCCTTGGGTTCTAACCTGTTGCAC (site TCCGACCCTGT) | 2.54
TCCGACCCTTGGGTTCTAACCTGTTGCAC (site TCCGTCCCTAT) | 0.0486
TCCGAGACTTGGGTTCTAACCTGTTGCCG (site TCCGAGACTAG) | 0.541
TCCGAGACTTGGGTTCTAACCTGTTGCCG (site TCCGAGACTCG) | 1.93
TCCGAGACTTGGGTTCTAACCTGTTGCCG (site TCCGAGACTGG) | 0.0458
TCCGAGACTTGGGTTCTAACCTGTTGCCG (site TCCGAGACTTG) | 0.0796
TCCGATTCTTGGGTTCTAACCTGTTGCGT (site GCCTATTCTAC) | 0.19
